Tests used:
Format in all cases: in vivo
[1] = system: barnyardgrass (Echinochloa crus-galli); experiment: Test A preemergence soil spray, visual injury rating 0-100; conditions: 10 days
Summary of the method: (§1)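 Rating: visual, day 10, untreated plants as reference, 0 no effect to 100 full control. Plants were in loam-sand and were treated either preemergence via directed soil spray or postemergence at the one- to two-leaf stage.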

[2] = system: blackgrass (Alopecurus myosuroides); experiment: as above; conditions: 10 days
Summary of the method: as §1

corn (Zea mays) [3] = experiment: as above; conditions: 10 days
Summary of the method: as §1

[4] = system: green foxtail (Setaria viridis); experiment: as above; conditions: 10 days
Summary of the method: as §1

kochia (Bassia scoparia) [5] = experiment: as above; conditions: 10 days
Summary of the method: as §1

[6] = system: oat, wild (wild oat, Avena fatua); experiment: as above; conditions: 10 days
Summary of the method: as §1

[7] = system: palmer (palmer amaranth, palmer pigweed, Amaranthus palmeri); experiment: as above; conditions: 10 days
Summary of the method: as §1

[8] = system: ragweed (common ragweed, Ambrosia artemisiifolia); experiment: as above; conditions: 10 days
Summary of the method: as §1

[9] = system: ryegrass, Italian (italian ryegrass, Lolium multiflorum); experiment: as above; conditions: 10 days
Summary of the method: as §1

soybean (Glycine max) [10] = experiment: as above; conditions: 10 days
Summary of the method: as §1

[11] = system: wheat (Triticum aestivum); experiment: as above; conditions: 10 days
Summary of the method: as §1

[12] = system: barnyardgrass (Echinochloa crus-galli); experiment: Test A postemergence application, visual injury rating 0-100
Summary of the method: as §1

[13] = system: blackgrass (Alopecurus myosuroides); experiment: as above
Summary of the method: as §1

corn (Zea mays) [14] = experiment: as above
Summary of the method: as §1

[15] = system: green foxtail (Setaria viridis); experiment: as above
Summary of the method: as §1

[16] = system: horseweed (Erigeron canadensis); experiment: as above
Summary of the method: as §1

kochia (Bassia scoparia) [17] = experiment: as above
Summary of the method: as §1

[18] = system: oat, wild (wild oat, Avena fatua); experiment: as above
Summary of the method: as §1

[19] = system: palmer (palmer amaranth, palmer pigweed, Amaranthus palmeri); experiment: as above
Summary of the method: as §1

[20] = system: ragweed (common ragweed, Ambrosia artemisiifolia); experiment: as above
Summary of the method: as §1

[21] = system: ryegrass, Italian (italian ryegrass, Lolium multiflorum); experiment: as above
Summary of the method: as §1

soybean (Glycine max) [22] = experiment: as above
Summary of the method: as §1

[23] = system: wheat (Triticum aestivum); experiment: as above
Summary of the method: as §1

[24] = system: barnyardgrass (Echinochloa crusgalli); experiment: Test B flooded paddy test, visual plant response rating 0-100; conditions: 250 g ai/ha, Flood, applied to paddy water, evaluated after 13 days
Summary of the method: (§2)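 Visual evaluation after 13 days. Water-applied treatment, 3 cm flood depth held constant, plants at 2-leaf stage at treatment.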

[25] = system: ducksalad (Heteranthera limosa); experiment: as above; conditions: 250 g ai/ha, Flood, applied to paddy water, evaluated after 13 days
Summary of the method: as §2

rice (Oryza sativa) = experiment: as above; conditions: 250 g ai/ha, Flood, applied to paddy water, evaluated after 13 days
Summary of the method: as §2

[26] = system: sedge, umbrella (small-flower umbrella sedge, Cyperus difformis); experiment: as above; conditions: 250 g ai/ha, Flood, applied to paddy water, evaluated after 13 days
Summary of the method: as §2

[27] = 62 g ai/ha, 0 = no effect, 100 = complete control
[28] = 62 g ai/ha, postemergence, 10 days, 0 = no effect, 100 = complete control
[29] = Postemergence, 16 g ai/ha, greenhouse 10 days, 0 no effect, 100 complete control

CCOC(=O)C1=CCC(NC(=O)C2(C)CN(c3cc(F)cc(F)c3)C(=O)O2)C1 (centres unmarked) [Compound 112]
Barnyardgrass plant response rating ([1]; 16 g ai/ha, 0 to 100 scale): 20 | Barnyardgrass plant response rating (0-100) [1, 27]: 100 | Blackgrass plant response rating ([2]; 16 g ai/ha, 0 to 100 scale): 0 | Blackgrass plant response rating (0-100) [2, 27]: 30 | Corn plant response rating (corn (Zea mays) [3]; 16 g ai/ha, 0 to 100 scale): 20 | Corn plant response rating (0-100) (corn (Zea mays) [3]; [27]): 60 | Foxtail, Green plant response rating ([4]; 16 g ai/ha, 0 to 100 scale): 20 | Foxtail, Green plant response rating (0-100) [4, 27]: 100 | Kochia plant response rating (kochia (Bassia scoparia) [5]; 16 g ai/ha, 0 to 100 scale): 0 | Kochia plant response rating (0-100) (kochia (Bassia scoparia) [5]; [27]): 70 | Oat, Wild plant response rating ([6]; 16 g ai/ha, 0 to 100 scale): 0 | Oat, Wild plant response rating (0-100) [6, 27]: 0 | Pigweed, Palmer plant response rating ([7]; 16 g ai/ha, 0 to 100 scale): 0 | Pigweed, Palmer plant response rating (0-100) [7, 27]: 100 | Ragweed plant response rating ([8]; 16 g ai/ha, 0 to 100 scale): 0 | Ragweed plant response rating (0-100) [8, 27]: 0 | Ryegrass, Italian plant response rating ([9]; 16 g ai/ha, 0 to 100 scale): 60 | Ryegrass, Italian plant response rating (0-100) [9, 27]: 80 | Soybean plant response rating (soybean (Glycine max) [10]; 16 g ai/ha, 0 to 100 scale): 10 | Soybean plant response rating (0-100) (soybean (Glycine max) [10]; [27]): 0 | Wheat plant response rating ([11]; 16 g ai/ha, 0 to 100 scale): 40 | Wheat plant response rating (0-100) [11, 27]: 70 | Barnyardgrass plant response rating (0-100) [12, 28]: 100 | Barnyardgrass plant response rating (0 to 100 scale) [12, 29]: 100 | Blackgrass plant response rating (0-100) [13, 28]: 80 | Blackgrass plant response rating (0 to 100 scale) [13, 29]: 70 | Corn plant response rating (0-100) (corn (Zea mays) [14]; [28]): 100 | Corn plant response rating (0 to 100 scale) (corn (Zea mays) [14]; [29]): 100 | Foxtail, Green plant response rating (0-100) [15, 28]: 90 | Foxtail, Green plant response rating (0 to 100 scale) [15, 29]: 90 | Horseweed plant response rating (0-100) [16, 28]: 0 | Horseweed plant response rating (0 to 100 scale) [16, 29]: 0 | Kochia plant response rating (0-100) (kochia (Bassia scoparia) [17]; [28]): 90 | Kochia plant response rating (0 to 100 scale) (kochia (Bassia scoparia) [17]; [29]): 60 | Oat, Wild plant response rating (0-100) [18, 28]: 90 | Oat, Wild plant response rating (0 to 100 scale) [18, 29]: 50 | Pigweed, Palmer plant response rating (0-100) [19, 28]: 80 | Pigweed, Palmer plant response rating (0 to 100 scale) [19, 29]: 30 | Ragweed plant response rating (0-100) [20, 28]: 50 | Ragweed plant response rating (0 to 100 scale) [20, 29]: 50 | Ryegrass, Italian plant response rating (0-100) [21, 28]: 90 | Ryegrass, Italian plant response rating (0 to 100 scale) [21, 29]: 60 | Soybean plant response rating (0-100) (soybean (Glycine max) [22]; [28]): 80 | Soybean plant response rating (0 to 100 scale) (soybean (Glycine max) [22]; [29]): 60 | Wheat plant response rating (0-100) [23, 28]: 90 | Wheat plant response rating (0 to 100 scale) [23, 29]: 90 | Plant response rating, Barnyardgrass (0 to 100 scale, 0 is no effect and 100 is complete control) [24]: 80 | Plant response rating, Ducksalad (0 to 100 scale, 0 is no effect and 100 is complete control) [25]: 95 | Plant response rating, Rice (0 to 100 scale, 0 is no effect and 100 is complete control) (rice (Oryza sativa)): 85 | Plant response rating, Sedge, Umbrella (0 to 100 scale, 0 is no effect and 100 is complete control) [26]: 95
